{"source": "patent US20250221968A1", "about": "“TREATMENTS AND METHODS FOR INCREASING DOPAMINE” (Oxford University Innovation Limited, priority 2022, published 2025)", "key": {"nAChRs [1]": {"system": "nAChRs", "assay": "Calcium imaging of GCaMP6f in DA axons in DLS, ex vivo slices of DAT-Cre:Ai95D mice", "assay_type": "cell-based, mouse", "settings": "DHβE 1 μM", "description": "As in a previous study^21, an Olympus BX51WI microscope equipped with a OptoLED Lite system (CAIRN Research), Prime Scientific CMOS (sCMOS) Camera (Teledyne Photometrics), and a ×40/0.8 NA water-objective (Olympus UK) was used for wide-field fluorescence imaging of GCaMP6f in dopaminergic axons in DLS in ex vivo slices in response to single and trains (4 pulses, 100 Hz) of electrical stimulus pulses. Images were acquired at 16.6 Hz frame rate every 2.5 min using Micro-Manager 1.4, with stimulation and recording synchronised using custom-written procedures in Igor Pro 6 (WaveMetrics) and an ITC-18 A/D board (Instrutech). Image files were analysed with Matlab R2019b and Fiji 1.5. The inventors extracted fluorescence intensity from the region of interest (ROI) and from an equal background area where there was no GCaMP6f expression (on the stimulating electrode). After background subtraction, the Ca^2+ transients were bleach-corrected by fitting an exponential curve function through both the baseline (2 s prior to stimulation) and the last 1 s in a 7.2 s recording window. The order of single and train stimulations was alternated and equally distributed and data were collected in duplicate before and after a change in extracellular experimental condition. Data are expressed as ΔF/F where F is the fitted curve. […]"}, "nAChRs [2]": {"system": "nAChRs", "assay": "Ex vivo slice voltammetry (FCV): [DA]o evoked by light pulse after prior electrical stimulus, striatal slices from DAT-Cre mice", "assay_type": "cell-based, mouse", "settings": "DHβE 1 μM", "source_text": "(§1) Stimulations were timed to avoid FCV scans.\nThe Inventors also explored whether prior ChI activation limits subsequent DA release when driven by targeted optogenetic activation of DA axons (DADA). The Inventors used an electrical stimulus to initially drive DA release (DADA+DAChI) and then assessed DADA driven by a subsequent light activation of ChR2-expressing DA axons in ex vivo striatal slices from DAT-Cre mice (FIG. 2a,b). […] For inter-stimulus intervals <100 ms (DLS) or <50 ms (NAcc), this depression was relieved when a nAChR antagonist was present (DHβE, 1 μM)."}, "D2 receptors": {"biological_target": "T1, D2 receptors (Mus musculus, UniProt P61168)", "T1 construct": "striatal slices from ChAT-Cre: Ai32 mice; from tissue; host or cells: acute striatal slices (DLS) of ChAT-Cre:Ai32 mice", "T1 sequence (P61168 whole entry)": "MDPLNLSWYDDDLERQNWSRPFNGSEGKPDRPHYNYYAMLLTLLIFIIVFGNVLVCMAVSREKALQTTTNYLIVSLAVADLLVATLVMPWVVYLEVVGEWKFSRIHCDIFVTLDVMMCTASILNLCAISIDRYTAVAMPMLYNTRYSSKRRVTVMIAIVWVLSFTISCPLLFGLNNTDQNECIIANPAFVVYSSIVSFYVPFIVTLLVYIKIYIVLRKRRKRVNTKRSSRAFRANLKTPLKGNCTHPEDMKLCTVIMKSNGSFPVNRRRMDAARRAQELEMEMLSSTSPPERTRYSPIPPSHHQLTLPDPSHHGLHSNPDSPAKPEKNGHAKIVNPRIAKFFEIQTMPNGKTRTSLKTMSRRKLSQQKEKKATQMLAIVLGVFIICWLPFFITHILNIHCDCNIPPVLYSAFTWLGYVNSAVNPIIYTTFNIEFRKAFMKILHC", "assay": "Ex vivo slice voltammetry: DA release after light activation of ChIs, 1p vs 3p Estim, ChAT-Cre:Ai32 slices, D2 antagonism", "assay_type": "cell-based", "settings": "DLS, L-741,626 1 μM", "source_text": "as §1"}, "muscarinic receptors": {"system": "muscarinic receptors", "settings": "DLS, atropine 2 μM", "experimental": "For fast-scan cyclic voltammetry (FCV) in acute coronal slices, animals were anaesthetised with isoflurane. Brains were quickly removed into ice-cold, high Mg^2+ cutting solution containing in mM: 85 NaCl, 25 NaHCO3, 2.5 KCl, 1.25 NaH2PO4, 0.5 CaCl2, 7 MgCl2, 10 glucose, 65 sucrose. Brains were then blocked, and 300 μm coronal slices were cut on a vibratome (Leica VT1200S) between +1.5 to +0.5 mm from bregma containing caudate-putamen and nucleus accumbens. Slices recovered at 32° C. for 30-40 min after dissection and were subsequently kept at room temperature. Slices were maintained and recorded in artificial cerebrospinal fluid (aCSF) containing in mM: 130 NaCl, 25 NaHCO3, 2.5 KCl, 1.25 NaH2PO4, 2.5 CaCl2), 2 MgCl2, 10 glucose. The aCSF was saturated with 95% O2/5% CO2; recordings were made at 32-33° C. Extracellular DA concentration ([DA]o) was measured using FCV with 7 μm-diameter carbon fiber microelectrodes (CFMs; tip length 50-100 μm) and a Millar voltammeter (Julian Millar, Barts and the London School of Medicine and Dentistry) as previously^55. […]\nThe Inventors tested whether the DA release dynamics at the timepoints of ChI rebound activity are consistent with nAChR desensitisation. […] As a potential readout of the timecourse of nAChR desensitisation, the Inventors explored how the difference in [DA]o evoked by triplet versus single pulses (100 Hz) varied over time. […]"}, "nAChRs [3]": {"system": "nAChRs", "assay": "Anesthetised in vivo voltammetry in DLS", "set-up": "species or system mouse", "settings": "urethane-anesthetised wild-type mice, mecamylamine 2 mg/kg i.p. per FIG. 4 legend", "description": "Wild type mice were anesthetised with urethane (1.4-1.9 g/kg, i.p.; Biolab), supplemented with additional urethane (0.2 g/kg) every 1-2 hr as required. All wounds and pressure points were infiltrated with bupivacaine (0.5%). Upon reaching surgical anaesthesia, the head was fixed in a stereotaxic frame (Kopf, USA). Core temperature was maintained at 35-36° C. using a homeothermic blanket and monitored via a rectal probe (TR-100, Fine Science Tools). A round piece of skull overlying the left hemisphere was removed to target the DLS (AP+1.0 mm, ML 1.6 mm, DV 2.2 mm to Bregma). A stimulating and recording array consisting of a carbon-fiber microelectrode and a bipolar stimulating electrode (MS303/3-A/SPC, P1 Technology) was positioned in the DLS. The Ag/AgCl reference electrode was implanted in another part of the forebrain. […] The location of the tip of FCV electrode was confirmed histologically.\nFor striatal electrical stimulation, 0.65 mA current (200 μs) was delivered through a bipolar stimulating electrode (0.005 inch, MS303/3-A/SPC, P1 Technologies). The stimulating electrode tips were separated by ˜500 μm and were glued to the FCV recording electrode to fix the tip of the FCV electrode between the two stimulating poles. […]"}, "nAChRs [4]": {"system": "nAChRs", "assay": "Conditioned place preference testing after bilateral dorsal striatal infusion", "assay_type": "in vivo, mouse", "settings": "freely moving mice, 10 μg/side bilateral dorsal striatum, two days of conditioning", "source_text": "Cannulae Placements: Male C57BL/6N mice (42-50 days) were anesthetised with isoflurane (5% induction; 1.5-2% maintenance) and placed on a stereotaxic frame for surgery. Bilateral injection needles (O.D. 0.21 mm, I.D. 0.11 mm, RWD, China) with the guide cannula (O.D. 0.41 mm, I.D. 0.25 mm, RWD, China) were implanted to the dorsal striatum either vertically or at a small angle from the vertical, with the tip of each cannula aimed at coordinates: AP+1.0 mm; ML+/−1.6 mm to bregma; DV-2.4 mm (from dura). Mice recovered for three days after surgery.\nConditioned Place Preference Testing: In CPP experiments, mice were placed in a 40 cm×40 cm transparent plexiglass arena which was divided into two equal chambers separated by doorway. The chambers were decorated with either horizontal or vertical stripes. The movement of animals was recorded and analysed with Smart V3.0 tracking software (Panlab, Spain).\nOn day 1, mice were allowed to freely shuttle between two chambers to assess place preference at baseline, expressed as % time spent in right chamber. […] On day 4, the post-conditioning chamber preference was calculated as the % of time spent in the right mecamylamine-associated chamber compared to on pre-conditioning day 1. […]"}, "nAChRs [5]": {"system": "nAChRs", "assay": "6-OHDA lesioning and cylinder test (single paw reaching), mouse model of PD", "assay_type": "in vivo", "settings": "unilateral 6-OHDA lesioned mice, 10 μg into lesioned striatum, 10 min after injection", "description": "6-OHDA Lesioning and Reaching Task: On the lesioning day, 6-hydroxydopamine was injected into the right dorsolateral striatum through the pre-implanted cannula (1 μl of a 0.9% saline solution containing 4 μg/μL 6-OHDA (Sigma-Aldrich) and 0.02% acetic acid) over 5 min. On the testing day, mecamylamine (10 μg/side) was injected via the cannula in a volume of 0.5 μl over 1 min into the lesioned (right) striatum. Animals were sacrificed immediately after behavioural testing. The 6-OHDA-induced loss of dopamine axons was confirmed by the ˜50% decrease of fluorescence intensity of TH staining in slices compared to the contralateral DLS which was measured with ImageJ (1.52p). The anterior commissure used as 0% background fluorescence. Animals were briefly sedated with isoflurane during the injection of 6-OHDA and mecamylamine.\nA cylinder test was performed before and 10 min after 6-OHDA injection to confirm an acute effect of 6-OHDA. After one day of […], the test was performed again before and 10 min after mecamylamine injection. No habituation of the mice to the cylinder was conducted. During the test, mice were individually placed into a glass cylinder (diameter 19 cm, height 25 cm). […] Only wall touches with a single paw, ipsilateral or contralateral forelimb, were counted in the analysis. Data are contralateral touches expressed as a percentage of total number of single-paw touches. […]"}}, "note": "“Also recorded” adds a separate entry of the source."}
{"smiles": "CO[C@H]1CC=C2CCN3CCC4=C(CC(=O)OC4)[C@]23C1", "note": "[DHβE, Dihydro-β-erythroidine]", "values": [{"measurement": "axonal GCaMP6f fluorescence for a 4-pulse train (100 Hz) compared to a single pulse", "setting": "nAChRs [1]", "result": "markedly greater"}, {"measurement": "depression of [DA]o evoked by a subsequent light pulse after an electrical stimulus", "setting": "nAChRs [2]; DLS, inter-stimulus intervals <100 ms", "result": "relieved"}, {"measurement": "depression of [DA]o evoked by a subsequent light pulse after an electrical stimulus", "setting": "nAChRs [2]; NAcc, inter-stimulus intervals <50 ms", "result": "relieved"}]}
{"smiles": "OC1(c2ccc(Cl)cc2)CCN(Cc2c[nH]c3ccccc23)CC1", "note": "[L-741,626]", "values": [{"measurement": "dynamic DA release response after light activation of ChIs (100-400 ms interval)", "setting": "D2 receptors", "result": "persists"}]}
{"smiles": "CN1[C@@H]2CC[C@H]1C[C@@H](OC(=O)C(CO)c1ccccc1)C2", "note": "(some centres unmarked) [atropine]", "values": [{"measurement": "dynamic DA release response after light activation of ChIs (100-400 ms interval)", "setting": "muscarinic receptors", "result": "persists"}]}
{"smiles": "CNC1(C)C2CCC(C2)C1(C)C", "note": "(centres unmarked) [mecamylamine]", "values": [{"measurement": "[DA]o evoked by local striatal stimulation with brief electrical pulse trains", "setting": "nAChRs [3]", "result": "significantly increased"}, {"measurement": "conditioned-place preference for the drug-conditioned chamber", "setting": "nAChRs [4]", "result": "developed a conditioned-place preference"}, {"measurement": "motor deficits: contralateral forelimb single-paw touching in cylinder test", "setting": "nAChRs [5]", "result": "reduces deficits; also recorded: remediated these motor deficits"}]}
